Measured values: patent publication US20220324865A1 (Bayer Aktiengesellschaft, priority 2018, published 2022)
Structures can show the parent of a compound that is named as a salt.

molecular target: T1, human EP3 receptor (Homo sapiens, UniProt P43115); test: Cellular in vitro assay for determining EP3 receptor activity (human EP3 cell line, sulprostone-stimulated calcium luminescence); type: cell-based; details: CHO cells expressing human EP3 and mitochondrial Clytin; antagonist mode, sulprostone at EC50; read-out: EP3 CHO mtCLY ANTAG IC50
T1 construct: expressed in transfected cells; host or cells: CHO K1 (Chinese Hamster Ovary), stably co-transfected with Galpha16 and mitochondrial clytin
T1 sequence (P43115 1-390): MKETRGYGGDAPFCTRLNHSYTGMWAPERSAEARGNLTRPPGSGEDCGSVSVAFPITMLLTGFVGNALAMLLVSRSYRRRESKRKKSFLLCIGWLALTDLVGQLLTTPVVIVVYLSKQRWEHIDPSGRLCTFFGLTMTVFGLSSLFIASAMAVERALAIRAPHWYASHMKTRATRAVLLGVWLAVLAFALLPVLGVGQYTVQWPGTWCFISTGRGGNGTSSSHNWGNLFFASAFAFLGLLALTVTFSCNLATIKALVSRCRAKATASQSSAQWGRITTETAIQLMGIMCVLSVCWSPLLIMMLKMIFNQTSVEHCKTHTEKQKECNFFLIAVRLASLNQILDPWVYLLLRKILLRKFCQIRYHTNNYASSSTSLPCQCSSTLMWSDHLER
Outline: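 Antagonist activity was measured as inhibition of the luminescent calcium signal elicited by EC50 sulprostone, following 10 min compound pretreatment. The cell line was recombinant CHO K1 co-expressing human EP3, Gα16 and the photoprotein Clytin, reconstituted with coelenterazine.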

Compound	IC50 [nM]
C[C@@H](NC(=O)c1nn2cc(-c3ccc4ccccc4c3)[nH]c(=O)c2c1C#N)c1ccc(F)cc1 [6-68]	2.35
Cc1ccc(-c2cn3nc(C(=O)N[C@@H](C)C4CC4)c(C4CC(F)(F)C4)c3c(=O)[nH]2)cc1Cl [6-560]	1.6
Cc1ccc(-c2cn3nc(C(=O)N[C@@H](c4ccc(F)cc4)C(F)(F)CO)c(C(F)(F)F)c3c(=O)[nH]2)cc1F [6-141]	2.23
Cc1cc(-c2cn3nc(C(=O)NC(C)C4CCC4)c(C(F)(F)F)c3c(=O)[nH]2)ccc1Cl (single isomer, unassigned) [6-224]	2
Cc1ccc(-c2cn3nc(C(=O)NCC(O)(C(F)(F)F)C(F)(F)F)c(C4CC4)c3c(=O)[nH]2)cc1Cl [6-261]	2.7
Cc1ccc(-c2cn3nc(C(=O)NC[C@]4(C5CC5)NC(=O)NC4=O)c(C4CC4)c3c(=O)[nH]2)cc1C [6-457]	4.65
O=C(NCc1ncc(C(F)(F)F)cc1Cl)c1nn2cc(-c3ccc4ccccc4c3)[nH]c(=O)c2c1C(F)(F)F [6-8]	1.05
CCN(CCO)CC(NC(=O)c1cc2c(=O)[nH]c(-c3cnc4cccc(C)c4c3)cn2n1)c1ccccc1 (centres unmarked) [Example 1-115, N-[2-[Ethyl(2-hydroxyethyl)amino]-1-phenylethyl]-6-(5-methyl-3-quinolyl)-4-oxo-5H-pyrazolo-[1,5-a]pyrazine-2-carboxamide]	3.4
Cc1cc(-c2cn3nc(C(=O)NC(C)(C)C4CC4)c(C4CC4)c3c(=O)[nH]2)ccc1Cl [6-301]	1.4
O=C(N[C@@H](c1ccc(F)cc1)C(F)(F)CO)c1nn2cc(-c3ccc(C(F)(F)F)c(F)c3F)[nH]c(=O)c2c1C1CC1 [6-601]	4.25
Cc1ccc(-c2cn3nc(C(=O)N[C@@H](C)CO)c(C4CCC4)c3c(=O)[nH]2)cc1C [6-578]	2.3
Cc1cccc2ncc(-c3cn4nc(C(=O)NCC(C)(C)C)c(C(C)C)c4c(=O)[nH]3)cc12 [Example 4-33, N-(2,2-Dimethylpropyl)-6-(5-methylquinolin-3-yl)-4-oxo-3-(propan-2-yl)-4,5-dihydropyrazolo[1,5-a]pyrazine-2-carboxamide]	1.9
Cc1cc(-c2cn3nc(C(=O)NC(c4ccc(F)cc4)C4(O)CC4)c(C(F)(F)F)c3c(=O)[nH]2)ccc1Cl (single isomer, unassigned) [6-212]	8.15
CC(C)c1c(C(=O)N[C@@H](c2ccc(F)cc2)C(F)(F)CO)nn2cc(-c3ccc(Cl)c(F)c3)[nH]c(=O)c12 [6-536]	3.8
CC(C)(O)[C@@H](NC(=O)c1nn2cc(-c3ccc(Cl)c(F)c3)[nH]c(=O)c2c1C1CC(F)(F)C1)c1ccc(F)cc1 [6-555]	3.35
Cc1cc(-c2cn3nc(C(=O)NC4(c5ccc(F)cc5)CN(C5CC5)C4)c(C(F)(F)F)c3c(=O)[nH]2)ccc1Cl [6-238]	1.4

Compound	IC50 [nM]
O=C(NC1(c2ccc(F)cc2)COC1)c1cc2c(=O)[nH]c(-c3ccc4ccccc4c3)cn2n1 [6-56]	0.74
CCN1CCC(NC(=O)c2nn3cc(-c4ccc(Cl)c(C)c4)[nH]c(=O)c3c2C2CC2)(C(F)(F)F)C1 (single isomer, unassigned) [6-294]	9.95
Cc1ccc(-c2cn3nc(C(=O)NCC(N)C(F)(F)F)c(C(F)(F)F)c3c(=O)[nH]2)cc1C (racemic) [6-118]	5.6
Cc1cc(-c2cn3nc(C(=O)NC(C)C4CCC4)c(C4CC4)c3c(=O)[nH]2)ccc1Cl (single isomer, unassigned) [6-300]	3.3
Cc1cccc2ncc(-c3cn4nc(C(=O)N[C@@H](c5ccc(F)cc5)C(C)(C)O)c(C(F)(F)F)c4c(=O)[nH]3)cc12 [6-546]	3.13
COc1cccc(C(CCO)NC(=O)c2nn3cc(-c4cnc5cccc(C)c5c4)[nH]c(=O)c3c2C(C)C)c1 (centres unmarked) [Example 4-45, N-[3-Hydroxy-1-(3-methoxyphenyl)propyl]-3-isopropyl-6-(5-methyl-3-quinolyl)-4-oxo-5H-pyrazolo[1,5-a]pyrazine-2-carboxamide]	0.61
Cc1ccc(-c2cn3nc(C(=O)N[C@@H](c4ccc(F)cc4)C(F)(F)CO)c(C(F)(F)C(F)(F)F)c3c(=O)[nH]2)cc1F [6-491]	0.58
Cc1ccc(-c2cn3nc(C(=O)N[C@@H](C)C4CC4)c(C4CC4(F)F)c3c(=O)[nH]2)cc1Cl (some centres unmarked) [6-561]	1.1
CC(C)(C)OC(=O)N1CC(NC(=O)c2cc3c(=O)[nH]c(-c4ccc5c(c4)OCCO5)cn3n2)(c2ccc(F)cc2)C1 [6-54]	3.35
Cc1cc(-c2cn3nc(C(=O)NC4(c5ccc(F)cc5)CN(CC(F)F)C4)c(C4CC4)c3c(=O)[nH]2)ccc1Cl [6-340]	1.02
COc1ccc(C(NC(=O)c2nn3c(C)c(-c4ccc5ccccc5c4)[nH]c(=O)c3c2C)C2CC2)cc1 (centres unmarked) [Example 3-35, N-[Cyclopropyl(4-methoxyphenyl)methyl]-3,7-dimethyl-6-(2-naphthyl)-4-oxo-5H-pyrazolo[1,5-a]pyrazine-2-carboxamide]	5.05
O=C(N[C@H](CN1CC(F)C1)c1ccccc1)c1cc2c(=O)[nH]c(-c3ccc4ccccc4c3)cn2n1 [6-545]	0.77
O=C(N[C@H](CN1CCOCC1)c1ccc(F)cc1)c1nn2cc(-c3ccc(Cl)c(F)c3)[nH]c(=O)c2c1C1CC1 [6-106]	0.61
Cc1c(C(=O)NC2(c3ccc(Cl)cc3)CCC2)nn2c(C)c(-c3ccc4ccccc4c3)[nH]c(=O)c12 [Example 3-32, N-[1-(4-Chlorophenyl)cyclobutyl]-3,7-dimethyl-6-(naphthalen-2-yl)-4-oxo-4,5-dihydropyrazolo[1,5-a]pyrazine-2-carboxamide]	5.8
COCc1c(C(=O)NC2(c3ccc(F)cc3)CN(C)C2)nn2cc(-c3ccc4ccccc4c3)[nH]c(=O)c12 [Example 1-21, N-[3-(4-Fluorophenyl)-1-methylazetidin-3-yl]-3-(methoxymethyl)-6-(naphthalen-2-yl)-4-oxo-4,5-dihydropyrazolo[1,5-a]pyrazine-2-carboxamide]	1.25
CC[C@@H](NC(=O)c1nn2cc(-c3ccc4ccccc4c3)[nH]c(=O)c2c1C#N)c1ccccc1 [Example 3-61, 3-Cyano-6-(naphthalen-2-yl)-4-oxo-N-[(1R)-1-phenylpropyl]-4,5-dihydropyrazolo[1,5-a]pyrazine-2-carboxamide]	2

Next, values leading:

IC50 [nM]	Compound
3.13	C[C@@H](NC(=O)c1cc2c(=O)[nH]c(-c3cnc4ccccc4c3)cn2n1)c1ccc(F)cc1 [6-62]
5.9	COc1ccc(C2(NC(=O)c3cc4c(=O)[nH]c(-c5ccc6ccccc6c5)cn4n3)CN(C)C2)cc1 [Example 1-59, N-[3-(4-Methoxyphenyl)-1-methylazetidin-3-yl]-6-(naphthalen-2-yl)-4-oxo-4,5-dihydropyrazolo-[1,5-a]pyrazine-2-carboxamide formic acid salt]
4	CN1CC(NC(=O)c2cc3c(=O)[nH]c(-c4ccc5c(c4)CCCC5)cn3n2)(c2ccc(F)cc2)C1 [Example 1-99, N-[3-(4-Fluorophenyl)-1-methylazetidin-3-yl]-4-oxo-6-(5,6,7,8-tetrahydronaphthalen-2-yl)-4,5-dihydropyrazolo[1,5-a]pyrazine-2-carboxamide]
7	CC(NC(=O)c1cc2c(=O)[nH]c(-c3ccc4ccccc4c3)cn2n1)c1cnc(OCC(F)(F)F)cn1 (centres unmarked) [6-7]
9.95	COCc1c(C(=O)N[C@@H](c2ccc(F)cc2)C(C)(C)O)nn2cc(-c3ccc(Cl)c(F)c3)[nH]c(=O)c12 [6-625]
7.5	CCCNC(=O)c1cc2c(=O)[nH]c(-c3ccc4cccc(F)c4c3)cn2n1 [6-40]
3.67	CC[C@@H](C)NC(=O)c1cc2c(=O)[nH]c(-c3ccc(C)c(C4CC4)c3)cn2n1 [6-613]
1.87	COc1ccc(CNC(=O)c2cc3c(=O)[nH]c(-c4ccc5c(c4)OCCO5)cn3n2)cc1OC [6-76]
2.2	COc1ccc(CNC(=O)c2cc3c(=O)[nH]c(-c4ccc(C)c(Cl)c4)cn3n2)cc1OC [6-80]
5.77	O=C(N[C@@H]1c2ccccc2C[C@@H]1O)c1cc2c(=O)[nH]c(-c3ccc4ccccc4c3)cn2n1 [6-74]
0.515	Cc1ccc(-c2cn3nc(C(=O)N[C@H](C)c4ccc(F)cc4)c(C(C)C)c3c(=O)[nH]2)cc1C [Example 1-90, 6-(3,4-Dimethylphenyl)-N-[(1R)-1-(4-fluorophenyl)ethyl]-4-oxo-3-(propan-2-yl)-4,5-dihydropyrazolo[1,5-a]pyrazine-2-carboxamide]
3.55	C[C@H](NC(=O)c1cc2c(=O)[nH]c(-c3ccc4c(c3)N(C)CCO4)cn2n1)c1ccc(F)cc1 [6-83]
7.3	O=C(N[C@H](CCO)c1ccc(F)cc1)c1cc2c(=O)[nH]c(-c3ccc4c(c3)COCC4)cn2n1 [Example 1-24, 6-(3,4-Dihydro-1H-isochromen-7-yl)-N-[(1R)-1-(4-fluorophenyl)-3-hydroxypropyl]-4-oxo-4,5-dihydropyrazolo[1,5-a]pyrazine-2-carboxamide]
0.82	COc1ccc([C@@H](C)NC(=O)c2nn3cc(-c4ccc(Cl)c(Cl)c4)[nH]c(=O)c3c2C2CC2)cn1 [6-426]
6.68	Cc1ccc(-c2cn3nc(C(=O)N[C@H]4c5ccccc5C[C@@H]4O)cc3c(=O)[nH]2)cc1C [Example 1-80, 6-(3,4-Dimethylphenyl)-N-[(1S,2S)-2-hydroxy-2,3-dihydro-1H-inden-1-yl]-4-oxo-4,5-dihydropyrazolo[1,5-a]pyrazine-2-carboxamide]
